These results are taken from patent publication US12377069B2, “Compounds, compositions, methods of using, and methods for preparing compounds” (UNIVERSITY OF LOUISVILLE RESEARCH FOUNDATION, INC., priority 2018, dated 2025).

Data set [1] in a line: Stability at gastric pH and with digestive enzymes. It is filed as in vitro ADME. As to conditions: pH 2.0; enzymes 100 U/ml, 12 h, 37° C.; 0.2 mg/ml. On the procedure: FIG. 1: UAS03 is a potent anti-inflammatory structural analogue of UroA and induces tight junction proteins. (A) Chemical structures of UroA, UAS03. UroA/UAS03 stability was examined in the presence of gastric pH 2.0 and digestive enzymes. UroA and UAS03 (0.2 mg/ml) were incubated with digestive enzymes (esterases and proteases, 100 U/ml) for 12 h at 37° C. and compound levels were quantified. (B) BMDMs were stimulated with LPS (50 ng/ml) without or with UroA (blue line)/UAS03 (purple line) (0.1, 1, 10, 25 and 50 μM) for 6 hours. IL-6 and TNF-α levels in supernatants were measured. (C) C57BL/6 mice (n=3-4) were pretreated with UroA (20 mg/kg) and UAS03 (20 mg/kg). After 4 hours, LPS (2 mg/kg) was injected intraperitoneally. Post 4 h of LPS administration, serum levels of IL-6 and TNF-α was measured. […] (G) The fold changes in mRNA levels of claudin 4 (Cldn4), occludin (Ocln) and Zona occludens 1 (ZO1) in HT29 cells were determined by RT PCR method. (H) UroA/UAS03 induced protein expression of Cldn4, Ocln and ZO1 in HT29 cells were determined by immunoblots and quantified by Image J software. […] The green intensity (n=15-20 cell membrane regions) was measured. […] The protein lysates were prepared from colon scrapes and subjected to immunoblots and detected the expression of the (J) Nrf2, HO1, Cldn4 and (K) AhR using appropriate antibodies as described in methods. […]

Data set [2] concerns C57BL/6N mice. Put plainly: Chronic ALD mouse model. It is filed as in vivo. Conditions: 20 mg/kg orally every other day, 4 weeks. On the procedure:
FIG. 18: UAS03 mitigates chronic ALD. (A) C57BL/6 mice (10 wk old age) were used in chronic ALD models and analyzed after 4 weeks as described. Pair fed (n=5/group) and EtOH fed (n=10/group) mice were treated with Veh (0.25% CMC) and UAS03 (20 mg/kg) alternate day for 4 weeks. (B) Gross images of colons (C) colon lengths (D) In vivo permeability using FITC-Dextran was measured. (E) Serum ALT, AST, endotoxin, IL-6, TNF-α were measured using ELISA methods. (F) H&E sections (20×) of liver are shown. Scale bar is 100 μm. Fat droplets (white) are visible in EtOH group. (G) The levels of triglycerides (TGs), IL-6, TNF-α and myeloperoxidase (MPO) were measured in liver tissues. (H) Immunoblot of Ocln expression in ileum tissues (n=3) from mice fed with EtOH treated with Veh or UAS03. Error bars, ±SEM. Statistics were performed using 2way ANOVA multiple comparisons. * p<0.05, ** p<0.01, *** p<0.001.
Male C57BL/6N (10 week age old) were purchased from Jackson Laboratory and were acclimatized with pair fed liquid diet (Lieber DeCarli) for 1 week. After acclimatization, animals were fed with pair fed (n=5 mice/group) and alcohol diet (n=10 mice/group). Briefly, mice were fed with diet containing 17% of energy as protein, 40% as corn oil, 7.5% as carbohydrate, and 35.5% as either alcohol (5% v/w, alcohol-fed, AF) or isocaloric maltose dextrin (pair-fed, PF). Before mice went on to 5% alcohol diet, alcohol concentration was ramped from 1.6% (3 days) to 3.6% (3 days) and finally 5% for next 4 weeks. UAS03 group animals received UAS03 orally (20 mg/kg/day) on every other day after start of alcohol diet (FIG. 18A). We used 0.25% sodium carboxymethyl cellulose (CMC) as vehicle treatment. The mice were euthanized after 4 weeks and measured colon lengths (FIG. 18B-C), in vivo gut permeability (FITC-dextran assay), serum ALT, AST, endotoxin, IL-6 and TNF-α (FIG. 18E).

Data set [3] concerns colon cancer cells. Put plainly: Clonogenic and wound healing assays. It counts as cell-based.

For `Oc1ccc2c(c1)COc1cc(O)ccc1-2` [UAS03, 6H-benzo[c]chromene-3,8-diol], the “stability at gastric pH and in the presence of gastric enzymes (esterases and proteases)” value in data set [1] is listed as “stable”. Besides, in data set [2], the “deterioration of Ocln in the gut” value is recorded as “protected from deterioration of Ocln”; the “liver fat deposition (histopathology)” value was “reduced liver fat deposition”; the “liver inflammation (IL-6, TNF-α, MPO) and TG levels” value is “down regulated liver inflammation and TG levels”.
Take `O=c1oc2cc(O)ccc2c2ccc(O)cc12` [UroA, 3,8-dihydroxy-6H-dibenzo[b,d]pyran-6-one]: in data set [3], the “colon cancer cell colony formation (clonogenic assay)” value is on record as “reduced”. Besides, the “cell growth and migration into scratch (wound healing assay)” value in data set [3] (in combination with 5FU) is “inhibited cell growth and migration”.
